Measurements as given in the supplement of paper PMC6045584.
± gives the standard deviation of the averaged measurements.

Key:
[1] = compound: CC(=O)NCC(=O)N1[C@@H]2CC[C@H]1c1ccc(Nc3ncc(C(F)(F)F)c(NC4CCC4)n3)cc12; assay: surviving fraction relative to DMSO-only wells; higher = less growth inhibition; details: exposure time: 5 days
In short: (§1)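 Continuous five-day exposure to inhibitors at 0.5, 1, 5, 10, 50, 100, 500 and 1000 nM started 24 hours after log-phase tumour cell lines were seeded at 250–500 cells per well in 384-well plates. Luminescence was read after 10 minutes at room temperature. Viability is given as surviving fraction, meaning CellTiter-Glo luminescence normalised to the median of DMSO-only wells.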

PACLITAXEL [2] = compound: T1, CC(=O)O[C@H]1C(=O)[C@@]2(C)[C@H]([C@H](OC(=O)c3ccccc3)[C@]3(O)C[C@H](OC(=O)[C@H](O)[C@@H](NC(=O)c4ccccc4)c4ccccc4)C(C)=C1C3(C)C)[C@]1(OC(C)=O)CO[C@@H]1C[C@@H]2O [PACLITAXEL]; assay: as above; details: exposure time: 5 days
In short: as §1

OSI-906 [3] = compound: T2, C[C@]1(O)C[C@@H](c2nc(-c3ccc4ccc(-c5ccccc5)nc4c3)c3c(N)nccn32)C1 [OSI-906]; assay: as above; details: exposure time: 5 days
In short: as §1

CAMPTOTHECIN [4] = compound: T3, CC[C@@]1(O)C(=O)OCc2c1cc1n(c2=O)Cc2cc3ccccc3nc2-1 [CAMPTOTHECIN]; assay: as above; details: exposure time: 5 days
In short: as §1

CARBOPLATIN [5] = compound: T4, O=C(O)C1(C(=O)O)CCC1.[NH2-].[NH2-].[Pt+2] [CARBOPLATIN]; assay: as above; details: exposure time: 5 days
In short: as §1

CELECOXIB [6] = compound: T5, Cc1ccc(-c2cc(C(F)(F)F)nn2-c2ccc(S(N)(=O)=O)cc2)cc1 [CELECOXIB]; assay: as above; details: exposure time: 5 days
In short: as §1

GEFITINIB [7] = compound: T6, COc1cc2ncnc(Nc3ccc(F)c(Cl)c3)c2cc1OCCCN1CCOCC1 [GEFITINIB]; assay: as above; details: exposure time: 5 days
In short: as §1

[8] = compound: CC(=O)c1c(C)c2cnc(Nc3ccc(N4CCNCC4)cn3)nc2n(C2CCCC2)c1=O; assay: as above; details: exposure time: 5 days
In short: as §1

YM155 [9] = compound: T7, COCC[n+]1c2c(n(Cc3cnccn3)c1C)C(=O)c1ccccc1C2=O [YM155]; assay: as above; details: exposure time: 5 days
In short: as §1

[10] = compound: CC(=O)NCC(=O)N1[C@@H]2CC[C@H]1c1ccc(Nc3ncc(C(F)(F)F)c(NC4CCC4)n3)cc12; assay: area under dose-response curve of surviving fraction (unscaled, Aref=0) (surviving fraction x log10(nM)); higher = more resistant; details: exposure time: 5 days; dose range 0.5-1000 nM
In short: (§2)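 Each tumour cell line was screened three times in 384-well plates, receiving eight inhibitor concentrations from 0.5 to 1000 nM for five days. CellTiter-Glo luminescence gave viability, normalised to DMSO-only wells. Using the drc R package, surviving fractions were fitted with 3-parameter logistic dose-response curves, and the unscaled activity area over log10 dose (Aref = 0) was taken as the area under the curve.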

PACLITAXEL [11] = compound: T1, PACLITAXEL; assay: as above; details: exposure time: 5 days; dose range 0.5-1000 nM
In short: as §2

OSI-906 [12] = compound: T2, OSI-906; assay: as above; details: exposure time: 5 days; dose range 0.5-1000 nM
In short: as §2

CAMPTOTHECIN [13] = compound: T3, CAMPTOTHECIN; assay: as above; details: exposure time: 5 days; dose range 0.5-1000 nM
In short: as §2

CARBOPLATIN [14] = compound: T4, CARBOPLATIN; assay: as above; details: exposure time: 5 days; dose range 0.5-1000 nM
In short: as §2

CELECOXIB [15] = compound: T5, CELECOXIB; assay: as above; details: exposure time: 5 days; dose range 0.5-1000 nM
In short: as §2

GEFITINIB [16] = compound: T6, GEFITINIB; assay: as above; details: exposure time: 5 days; dose range 0.5-1000 nM
In short: as §2

[17] = compound: CC(=O)c1c(C)c2cnc(Nc3ccc(N4CCNCC4)cn3)nc2n(C2CCCC2)c1=O; assay: as above; details: exposure time: 5 days; dose range 0.5-1000 nM
In short: as §2

YM155 [18] = compound: T7, YM155; assay: as above; details: exposure time: 5 days; dose range 0.5-1000 nM
In short: as §2

NY BONE
surviving fraction ([1]; 0.5 nM): 0.962 ± 0.012 | surviving fraction ([1]; 1 nM): 0.941 ± 0.029 | surviving fraction ([1]; 5 nM): 0.9803 ± 0.0061 | surviving fraction ([1]; 10 nM): 0.964 ± 0.03 | surviving fraction ([1]; 50 nM): 0.69 ± 0.011 | surviving fraction ([1]; 100 nM): 0.672 ± 0.025 | surviving fraction ([1]; 500 nM): 0.432 ± 0.025 | surviving fraction ([1]; 1000 nM): 0.129 ± 0.0021 | surviving fraction (PACLITAXEL [2]; 0.5 nM): 0.938 ± 0.019 | surviving fraction (PACLITAXEL [2]; 1 nM): 0.334 ± 0.015 | surviving fraction (PACLITAXEL [2]; 5 nM): 0.0363 ± 0.0075 | surviving fraction (PACLITAXEL [2]; 10 nM): 0.0327 ± 0.005 | surviving fraction (PACLITAXEL [2]; 50 nM): 0.0363 ± 0.0055 | surviving fraction (PACLITAXEL [2]; 100 nM): 0.026 ± 0.0076 | surviving fraction (PACLITAXEL [2]; 500 nM): 0.0307 ± 0.0038 | surviving fraction (PACLITAXEL [2]; 1000 nM): 0.0293 ± 0.0057 | surviving fraction (OSI-906 [3]; 0.5 nM): 0.9347 ± 0.009 | surviving fraction (OSI-906 [3]; 1 nM): 0.9183 ± 0.0031 | surviving fraction (OSI-906 [3]; 5 nM): 1.027 ± 0.01 | surviving fraction (OSI-906 [3]; 10 nM): 0.96 ± 0.011 | surviving fraction (OSI-906 [3]; 50 nM): 1 ± 0.011 | surviving fraction (OSI-906 [3]; 100 nM): 0.977 ± 0.035 | surviving fraction (OSI-906 [3]; 500 nM): 0.903 ± 0.023 | surviving fraction (OSI-906 [3]; 1000 nM): 0.915 ± 0.038 | surviving fraction (CAMPTOTHECIN [4]; 0.5 nM): 0.894 ± 0.052 | surviving fraction (CAMPTOTHECIN [4]; 1 nM): 0.905 ± 0.021 | surviving fraction (CAMPTOTHECIN [4]; 5 nM): 0.648 ± 0.026 | surviving fraction (CAMPTOTHECIN [4]; 10 nM): 0.184 ± 0.012 | surviving fraction (CAMPTOTHECIN [4]; 50 nM): 0.067 ± 0.0061 | surviving fraction (CAMPTOTHECIN [4]; 100 nM): 0.0407 ± 0.0015 | surviving fraction (CAMPTOTHECIN [4]; 500 nM): 0.02 ± 0.0017 | surviving fraction (CAMPTOTHECIN [4]; 1000 nM): 0.0217 ± 0.0021 | surviving fraction (CARBOPLATIN [5]; 0.5 nM): 1.03 ± 0.02 | surviving fraction (CARBOPLATIN [5]; 1 nM): 0.9813 ± 0.0058 | surviving fraction (CARBOPLATIN [5]; 5 nM): 1.08 ± 0.019 | surviving fraction (CARBOPLATIN [5]; 10 nM): 1.03 ± 0.024 | surviving fraction (CARBOPLATIN [5]; 50 nM): 1.09 ± 0.019 | surviving fraction (CARBOPLATIN [5]; 100 nM): 1.099 ± 0.0055 | surviving fraction (CARBOPLATIN [5]; 500 nM): 1.05 ± 0.012 | surviving fraction (CARBOPLATIN [5]; 1000 nM): 1.03 ± 0.016 | surviving fraction (CELECOXIB [6]; 0.5 nM): 0.989 ± 0.03 | surviving fraction (CELECOXIB [6]; 1 nM): 1.04 ± 0.041 | surviving fraction (CELECOXIB [6]; 5 nM): 1.09 ± 0.038 | surviving fraction (CELECOXIB [6]; 10 nM): 1.08 ± 0.022 | surviving fraction (CELECOXIB [6]; 50 nM): 1.11 ± 0.047 | surviving fraction (CELECOXIB [6]; 100 nM): 1.1 ± 0.039 | surviving fraction (CELECOXIB [6]; 500 nM): 1.01 ± 0.021 | surviving fraction (CELECOXIB [6]; 1000 nM): 1.01 ± 0.053 | surviving fraction (GEFITINIB [7]; 0.5 nM): 0.999 ± 0.032 | surviving fraction (GEFITINIB [7]; 1 nM): 1 ± 0.035 | surviving fraction (GEFITINIB [7]; 5 nM): 1.09 ± 0.036 | surviving fraction (GEFITINIB [7]; 10 nM): 1.06 ± 0.031 | surviving fraction (GEFITINIB [7]; 50 nM): 1.07 ± 0.026 | surviving fraction (GEFITINIB [7]; 100 nM): 1.14 ± 0.016 | surviving fraction (GEFITINIB [7]; 500 nM): 0.998 ± 0.019 | surviving fraction (GEFITINIB [7]; 1000 nM): 0.969 ± 0.032 | surviving fraction ([8]; 0.5 nM): 1.02 ± 0.024 | surviving fraction ([8]; 1 nM): 1.03 ± 0.065 | surviving fraction ([8]; 5 nM): 1.05 ± 0.057 | surviving fraction ([8]; 10 nM): 1.04 ± 0.018 | surviving fraction ([8]; 50 nM): 1.12 ± 0.023 | surviving fraction ([8]; 100 nM): 1.06 ± 0.043 | surviving fraction ([8]; 500 nM): 1.04 ± 0.049 | surviving fraction ([8]; 1000 nM): 1.02 ± 0.068 | surviving fraction (YM155 [9]; 0.5 nM): 0.911 ± 0.035 | surviving fraction (YM155 [9]; 1 nM): 0.949 ± 0.017 | surviving fraction (YM155 [9]; 5 nM): 0.965 ± 0.021 | surviving fraction (YM155 [9]; 10 nM): 0.997 ± 0.031 | surviving fraction (YM155 [9]; 50 nM): 1.01 ± 0.02 | surviving fraction (YM155 [9]; 100 nM): 0.988 ± 0.037 | surviving fraction (YM155 [9]; 500 nM): 0.449 ± 0.023 | surviving fraction (YM155 [9]; 1000 nM): 0.346 ± 0.0047 | area under dose-response curve [10]: 2.51 | area under dose-response curve (PACLITAXEL [11]): 0.337 | area under dose-response curve (OSI-906 [12]): 3.15 | area under dose-response curve (CAMPTOTHECIN [13]): 1.16 | area under dose-response curve (CARBOPLATIN [14]): 3.46 | area under dose-response curve (CELECOXIB [15]): 3.48 | area under dose-response curve (GEFITINIB [16]): 3.43 | area under dose-response curve [17]: 3.46 | area under dose-response curve (YM155 [18]): 2.96
